Experimental data as given in US10118894B2, “Isoindolinone derivatives useful as antiviral agents” (priority 2014, dated 2018).

System: HIV
Test: MT4 Assay (anti-HIV activity)
Type: cell-based
Details: Human immunodeficiency virus 1, MT4, 96 h, read-out: HIV MT4 Assay IC50
Protocol: Antiviral HIV activity and cytotoxicity values for compounds of the invention from Table 1 were measured in parallel in the HTLV-1 transformed cell line MT-4 based on the method previously described (Hazen et al., 2007, In vitro antiviral activity of the novel, tyrosyl-based human immunodeficiency virus (HIV) type 1 protease inhibitor brecanavir (GW640385) in combination with other antiretrovirals and against a panel of protease inhibitor-resistant HIV (Hazen et al., “In vitro antiviral activity of the novel, tyrosyl-based human immunodeficiency virus (HIV) type 1 protease inhibitor brecanavir (GW640385) in combination with other antiretrovirals and against a panel of protease inhibitor-resistant HIV”, Antimicrob. Agents Chemother. 2007, 51: 3147-3154; and Pauwels et al., “Sensitive and rapid assay on MT-4 cells for the detection of antiviral compounds against the AIDS virus”, J. of Virological Methods 1987, 16: 171-185).
Luciferase activity was measured 96 hours later by adding a cell titer glo (Promega, Madison, Wis.). Percent inhibition of cell protection data was plotted relative to no compound control. Under the same condition, cytotoxicity of the compounds was determined using cell titer Glo™ (Promega, Madison, Wis.). IC50s were determined from a 10 point dose response curve using 3-4-fold serial dilution for each compound, which spans a concentration range >1000 fold.
These values are plotted against the molar compound concentrations using the standard four parameter logistic equation: y=((Vmax*x^n)/(K^n+x^n))+Y2

Row | SMILES | IC50 [nM]
1 | Cc1c(-c2c(C)c3c(c(C)c2[C@H](OC(C)(C)C)C(=O)O)C(=O)N(Cc2ccccc2)C3)cc(F)c2c1CCCO2 (atropisomer, axis not shown; (M)) [Example 5, (S)-2-((M)-2-Benzyl-6-(8-fluoro-5-methylchroman-6-yl)-4,7-dimethyl-3-oxoisoindolin-5-yl)-2-(tert-butoxy)acetic acid] | 5
2 | Cc1ccc(-c2c(C)c3c(c(C)c2C(OC(C)(C)C)C(=O)O)C(=O)N(Cc2ccccc2)C3)cc1 (stereo not shown) [Example 1, 2-(2-Benzyl-4,7-dimethyl-3-oxo-6-(p-tolyl)isoindolin-5-yl)-2-(tert-butoxy)acetic acid] | 25
3 | Cc1c2c(c(C)c([C@H](OC(C)(C)C)C(=O)O)c1C1=CCC(C)(C)CC1)C(=O)N(Cc1ccccc1)C2 [Example 6, (S)-2-(2-benzyl-6-(4,4-dimethylcyclohex-1-en-1-yl)-4,7-dimethyl-3-oxoisoindolin-5-yl)-2-(tert-butoxy)acetic acid] | 36
4 | Cc1c2c(c(C)c(C(OC(C)(C)C)C(=O)O)c1-c1ccc3c(c1)CCCO3)C(=O)N(Cc1ccccc1)C2 (stereo not shown) [Example 4, 2-(2-benzyl-6-(chroman-6-yl)-4,7-dimethyl-3-oxoisoindolin-5-yl)-2-(tert-butoxy)acetic acid] | 52
5 | Cc1ccc(-c2c(C)c3c(c(C)c2[C@H](OC(C)(C)C)C(=O)O)C(=O)N(Cc2ccccc2)C3)cc1 [Example 2] | 42
6 | Cc1c2c(c(C)c(C(OC(C)(C)C)C(=O)O)c1-c1ccc(Cl)cc1)C(=O)N(Cc1ccccc1)C2 (stereo not shown) [Example 3, 2-(2-benzyl-6-(4-chlorophenyl)-4,7-dimethyl-3-oxoisoindolin-5-yl)-2-(tert-butoxy)acetic acid] | 86
7 | Cc1c(-c2c(C)c3c(c(C)c2[C@H](OC(C)(C)C)C(=O)O)C(=O)N(Cc2ccccc2)C3)cc(F)c2c1NCCO2 (atropisomer, axis not shown; (M)) [Example 7, (S)-2-((M)-2-benzyl-6-(8-fluoro-5-methyl-3,4-dihydro-2H-benzo[b][1,4]oxazin-6-yl)-4,7-dimethyl-3-oxoisoindolin-5-yl)-2-(tert-butoxy)acetic acid] | 14
